Results: ChEMBL document CHEMBL1201862, “PubChem BioAssay data set” (2004)
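Cells were grown in 96-well plates and exposed to each compound for 48 hours at five concentrations; endpoints were interpolated linearly between bracketing concentrations, or set to the highest concentration if not reached. GI50 is the concentration that inhibits growth by half.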 Active and inactive are the calls of the source. Cut-off read from the data, not from the text of the source: active = GI50 up to about 1.1 µM and inactive = higher.

Experiments:
Assay in all cases: NCI-60 cell line screen, 48 h
786-0 = tested on: 786-0
A549 = tested on: A549
CAKI-1 = tested on: CAKI-1
CCRF-CEM = tested on: CCRF-CEM
COLO 205 = tested on: COLO 205
DU-145 = tested on: DU-145
EKVX = tested on: EKVX
HCC 2998 = tested on: HCC 2998
HCT-15 = tested on: HCT-15
HL-60 = tested on: HL-60
HOP-62 = tested on: HOP-62
HT-29 = tested on: HT-29
IGROV-1 = tested on: IGROV-1
K562 = tested on: K562
KM12 = tested on: KM12
LOX IMVI = tested on: LOX IMVI
M14 = tested on: M14
MCF7 = tested on: MCF7
MDA-MB-231 = tested on: MDA-MB-231
MDA-N = tested on: MDA-N
MOLT-4 = tested on: MOLT-4
Malme-3M = tested on: Malme-3M
NCI-H23 = tested on: NCI-H23
OVCAR-8 = tested on: OVCAR-8
PC-3 = tested on: PC-3
RPMI-8226 = tested on: RPMI-8226
RXF 393 = tested on: RXF 393
SF-295 = tested on: SF-295
SK-MEL-28 = tested on: SK-MEL-28
SK-MEL-5 = tested on: SK-MEL-5
SK-OV-3 = tested on: SK-OV-3
SN12C = tested on: SN12C
SNB-75 = tested on: SNB-75
SR = tested on: SR
SW-620 = tested on: SW-620
T47D = tested on: T47D
TK-10 = tested on: TK-10
UACC-257 = tested on: UACC-257
UACC-62 = tested on: UACC-62
A498 = tested on: A498
ACHN = tested on: ACHN
HOP-92 = tested on: HOP-92
MDA-MB-435 = tested on: MDA-MB-435
NCI/ADR-RES = tested on: NCI/ADR-RES
OVCAR-3 = tested on: OVCAR-3
OVCAR-4 = tested on: OVCAR-4
OVCAR-5 = tested on: OVCAR-5
SF-268 = tested on: SF-268
SNB-19 = tested on: SNB-19
U-251 = tested on: U-251
UO-31 = tested on: UO-31
HCT-116 = tested on: HCT-116
Hs-578T = tested on: Hs-578T
NCI-H522 = tested on: NCI-H522
SF-539 = tested on: SF-539

Compound | GI50 (A549) | GI50 (CAKI-1) | GI50 (CCRF-CEM) | GI50 (COLO 205) | GI50 (DU-145) | GI50 (EKVX) | GI50 (HCT-15) [µM] | GI50 (HT-29) | GI50 (IGROV-1) | GI50 (K562) | GI50 (KM12) | GI50 (M14) | GI50 (MDA-N) | GI50 (NCI-H23) | GI50 (PC-3) | GI50 (RXF 393) | GI50 (SK-MEL-28) | GI50 (SN12C) | GI50 (SW-620) | GI50 (SF-268) | also measured
CC(=O)OCC12CCC3C4(C)CCCC(C)(C)C4CCC3(C)C1CC(C1=CC(=O)OC1O)O2 (stereo not drawn) | 2.92 µM (inactive) | 1.49 µM (inactive) | 0.303 µM (active) | 1.83 µM (inactive) | 2.07 µM (inactive) | 2.43 µM (inactive) | 0.92 | 1.3 µM (inactive) | 1.54 µM (inactive) | 0.776 µM (active) | 1.82 µM (inactive) | 1.42 µM (inactive) | 1.53 µM (inactive) | 1.69 µM (inactive) | 1.31 µM (inactive) | 2.06 µM (inactive) | 1.53 µM (inactive) | 1.34 µM (inactive) | 1.29 µM (inactive) | – | GI50 (786-0): 1.09 µM (active); GI50 (HCC 2998): 1.84 µM (inactive); GI50 (HL-60): 0.513 µM (active); GI50 (HOP-62): 2.41 µM (inactive); GI50 (LOX IMVI): 1.18 µM (inactive); GI50 (MCF7): 1.24 µM (inactive); GI50 (MDA-MB-231): 1.75 µM (inactive); GI50 (MOLT-4): 0.248 µM (active); GI50 (Malme-3M): 1.05 µM (active); GI50 (OVCAR-8): 1.38 µM (inactive); GI50 (RPMI-8226): 0.428 µM (active); GI50 (SF-295): 2.34 µM (inactive); GI50 (SK-MEL-5): 1.86 µM (inactive); GI50 (SK-OV-3): 2.47 µM (inactive); GI50 (SNB-75): 1.76 µM (inactive); GI50 (SR): 0.244 µM (active); GI50 (T47D): 1.88 µM (inactive); GI50 (TK-10): 1.9 µM (inactive); GI50 (UACC-257): 1.91 µM (inactive); GI50 (UACC-62): 1.8 µM (inactive)
C[N+]12CCN(c3ccccc31)c1ccccc12.[O-][Cl+3]([O-])([O-])[O-] | 4.91 µM (inactive) | > 10 µM (inactive) | – | 7.73 µM (inactive) | > 10 µM (inactive) | 6.15 µM (inactive) | > 10 | > 10 µM (inactive) | > 10 µM (inactive) | – | > 10 µM (inactive) | > 10 µM (inactive) | 2.79 µM (inactive) | 4.95 µM (inactive) | > 10 µM (inactive) | > 10 µM (inactive) | > 10 µM (inactive) | 7.28 µM (inactive) | > 10 µM (inactive) | 4.79 µM (inactive) | GI50 (A498): > 10 µM (inactive); GI50 (ACHN): > 10 µM (inactive); GI50 (HOP-92): > 10 µM (inactive); GI50 (MDA-MB-231): > 10 µM (inactive); GI50 (MDA-MB-435): > 10 µM (inactive); GI50 (NCI/ADR-RES): > 10 µM (inactive); GI50 (OVCAR-3): 3.44 µM (inactive); GI50 (OVCAR-4): > 10 µM (inactive); GI50 (OVCAR-5): > 10 µM (inactive); GI50 (OVCAR-8): 7.16 µM (inactive); GI50 (SF-295): 7.46 µM (inactive); GI50 (SK-MEL-5): 2.29 µM (inactive); GI50 (SNB-19): > 10 µM (inactive); GI50 (SNB-75): 6.28 µM (inactive); GI50 (TK-10): > 10 µM (inactive); GI50 (U-251): 6.01 µM (inactive); GI50 (UO-31): > 10 µM (inactive)
CCn1ncc(N=O)c1N | > 100 µM (inactive) | – | > 100 µM (inactive) | > 100 µM (inactive) | – | – | – | – | > 100 µM (inactive) | > 100 µM (inactive) | > 100 µM (inactive) | > 100 µM (inactive) | > 100 µM (inactive) | > 100 µM (inactive) | – | – | – | – | – | > 100 µM (inactive) | GI50 (HCT-116): > 100 µM (inactive); GI50 (Hs-578T): > 100 µM (inactive); GI50 (NCI-H522): > 100 µM (inactive); GI50 (RPMI-8226): > 100 µM (inactive); GI50 (SF-539): > 100 µM (inactive); GI50 (SNB-19): > 100 µM (inactive)
Cc1cc(/N=C/c2c(CO)cnc(C)c2O)c(/N=C/c2c(CO)cnc(C)c2O)cc1C | – | – | 17 µM (inactive) | – | > 100 µM (inactive) | > 100 µM (inactive) | > 100 | – | – | > 100 µM (inactive) | – | – | – | > 100 µM (inactive) | > 100 µM (inactive) | > 100 µM (inactive) | > 100 µM (inactive) | > 100 µM (inactive) | > 100 µM (inactive) | > 100 µM (inactive) | GI50 (MCF7): 75.9 µM (inactive); GI50 (MDA-MB-435): > 100 µM (inactive); GI50 (Malme-3M): > 100 µM (inactive); GI50 (NCI-H522): 78.9 µM (inactive); GI50 (OVCAR-3): > 100 µM (inactive); GI50 (OVCAR-5): > 100 µM (inactive); GI50 (SF-539): 95.9 µM (inactive); GI50 (SK-OV-3): > 100 µM (inactive); GI50 (T47D): > 100 µM (inactive); GI50 (U-251): > 100 µM (inactive); GI50 (UACC-257): > 100 µM (inactive)
